Measured values as given in patent US10829473B2, “Modulators of the cystic fibrosis transmembrane conductance regulator protein and methods of use” (AbbVie Overseas S.Á.R.L., priority 2017, dated 2020).
Like-named read-outs stand apart in the source and are kept apart here.

Target: T1, F508delCFTR (Homo sapiens, UniProt P13569, DEL508-508)
T1 construct: expressed in transfected cells; host or cells: CFBE41o- human lung derived epithelial cells (CFBE41o-F508delCFTR-HRP), doxycycline-inducible
Assay: Cell Surface Expression-Horse Radish Peroxidase (CSE-HRP) Assay;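 as to EC50 (with co-corrector): co-corrector chromenyl benzoic acid corrector at 2 or 3 µM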;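 as to Maximum % activity (without co-corrector): % of on-plate positive control chromenyl benzoic acid corrector at 2 or 3 µM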
Type: cell-based
Conditions: for Maximum % activity (with co-corrector) / Emax: maximum at any tested concentration; for Emax: read-out: Maximum % activity (without co-corrector)
How it was run: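 Corrector compounds were given as 8-point 3-fold series from 20 or 30 μM, with or without a 2 μM co-corrector, for 18-24 h at 33 °C. Surface HRP was read by luminol luminescence as % of positive control; variable-Hill-slope sigmoidal fitting gave EC50 from triplicate plates.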

[1] = test compound alone, without co-corrector, read-out: EC50 (without co-corrector)
[2] = with co-corrector, read-out: EC50 (with co-corrector)
[3] = test compound with co-corrector
[4] = test compound with co-corrector, read-out: EC50 (with co-corrector)
[5] = test compound without co-corrector
[6] = test compound without co-corrector, read-out: EC50 (without co-corrector)

T1 sequence (P13569 with tags, fused parts or gaps DEL508-508): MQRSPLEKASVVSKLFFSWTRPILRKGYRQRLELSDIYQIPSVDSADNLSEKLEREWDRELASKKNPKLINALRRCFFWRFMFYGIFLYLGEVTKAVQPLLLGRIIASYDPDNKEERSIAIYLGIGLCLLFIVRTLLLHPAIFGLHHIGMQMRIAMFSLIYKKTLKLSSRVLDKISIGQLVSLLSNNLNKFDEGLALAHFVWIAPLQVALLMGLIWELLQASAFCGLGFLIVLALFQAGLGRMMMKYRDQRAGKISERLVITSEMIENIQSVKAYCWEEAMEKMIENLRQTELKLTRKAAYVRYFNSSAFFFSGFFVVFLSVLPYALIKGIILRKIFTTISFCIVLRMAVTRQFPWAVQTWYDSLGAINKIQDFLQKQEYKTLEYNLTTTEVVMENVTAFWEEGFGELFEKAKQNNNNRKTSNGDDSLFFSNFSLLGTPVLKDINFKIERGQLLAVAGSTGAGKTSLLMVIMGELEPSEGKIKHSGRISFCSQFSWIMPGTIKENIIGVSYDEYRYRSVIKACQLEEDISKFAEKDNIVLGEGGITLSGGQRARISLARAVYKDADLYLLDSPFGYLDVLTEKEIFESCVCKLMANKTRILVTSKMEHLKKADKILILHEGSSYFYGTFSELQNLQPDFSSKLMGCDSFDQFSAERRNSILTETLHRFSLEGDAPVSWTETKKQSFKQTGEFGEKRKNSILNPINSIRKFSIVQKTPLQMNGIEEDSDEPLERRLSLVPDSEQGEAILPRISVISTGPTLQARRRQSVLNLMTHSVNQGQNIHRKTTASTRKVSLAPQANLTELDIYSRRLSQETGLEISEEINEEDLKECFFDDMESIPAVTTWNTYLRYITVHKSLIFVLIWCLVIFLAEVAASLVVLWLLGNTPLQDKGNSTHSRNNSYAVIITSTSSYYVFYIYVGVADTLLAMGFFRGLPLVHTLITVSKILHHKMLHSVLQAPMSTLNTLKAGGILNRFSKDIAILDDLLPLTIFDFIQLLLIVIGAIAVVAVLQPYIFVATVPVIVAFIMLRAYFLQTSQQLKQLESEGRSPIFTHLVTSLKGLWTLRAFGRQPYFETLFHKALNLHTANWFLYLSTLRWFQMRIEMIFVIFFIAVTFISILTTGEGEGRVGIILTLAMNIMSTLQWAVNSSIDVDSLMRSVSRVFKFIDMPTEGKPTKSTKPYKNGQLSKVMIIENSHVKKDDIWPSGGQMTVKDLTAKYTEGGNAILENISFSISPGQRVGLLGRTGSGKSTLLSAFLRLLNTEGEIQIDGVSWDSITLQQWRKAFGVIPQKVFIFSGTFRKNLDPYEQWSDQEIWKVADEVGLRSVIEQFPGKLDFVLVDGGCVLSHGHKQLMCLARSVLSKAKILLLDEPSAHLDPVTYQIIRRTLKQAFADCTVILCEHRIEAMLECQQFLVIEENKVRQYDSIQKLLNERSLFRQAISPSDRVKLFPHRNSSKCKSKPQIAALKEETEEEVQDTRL

Row | SMILES | EC50 [1] [µM] | Maximum % activity (with co-corrector) (with co-corrector) | EC50 [2] [µM] | Emax (without co-corrector) [%] | Maximum % activity (with co-corrector) [3] | EC50 [4] [µM] | Emax [5] [%] | EC50 [6] [µM]
1 | CCc1ccc(O[C@H]2CCOC2)c(C2(C(=O)NS(=O)(=O)c3cccc4ncccc34)CC2)c1 [Example I-117, 1-(5-ethyl-2-{[(3S)-oxolan-3-yl]oxy}phenyl)-N-(quinoline-5-sulfonyl)cyclopropane-1-carboxamide] | < 3 | +++ (≥350) | < 3 | > 150 |  |  |  | 
2 | CCc1ccc(O[C@H](C)COC)c(C2(C(=O)NS(=O)(=O)c3cccc4ncccc34)CC2)c1 [Example I-111, 1-(5-ethyl-2-{[(2R)-1-methoxypropan-2-yl]oxy}phenyl)-N-(quinoline-5-sulfonyl)cyclopropane-1-carboxamide] | < 3 | +++ (≥350) | < 3 | > 150 |  |  |  | 
3 | CC(C)Oc1ncc(N(C)C)cc1C1(C(=O)NS(=O)(=O)c2cccc3ncccc23)CC1 [Example GI-71, 1-{5-(dimethylamino)-2-[(propan-2-yl)oxy]pyridin-3-yl}-N-(quinoline-5-sulfonyl)cyclopropane-1-carboxamide] |  |  |  |  | +++ (≥350) | < 3 | > 150 | 3 to 10
4 | CC(C)COc1ncc(C2CCC2)cc1C1(C(=O)NS(=O)(=O)c2cccc3[nH]ccc23)CC1 [Example GI-52, 1-[5-cyclobutyl-2-(2-methylpropoxy)pyridin-3-yl]-N-(1H-indole-4-sulfonyl)cyclopropane-1-carboxamide] |  |  |  |  | +++ (≥350) | < 3 | > 150 | < 3
5 | COc1cnc(OC(C)C)c(C2(C(=O)NS(=O)(=O)c3cccc4nc(C)ccc34)CC2)c1 [Example GI-76, 1-{5-methoxy-2-[(propan-2-yl)oxy]pyridin-3-yl}-N-(2-methylquinoline-5-sulfonyl)cyclopropane-1-carboxamide] |  |  |  |  | +++ (≥350) | < 3 | > 150 | < 3
6 | COCC(C)(C)c1ccc(OC)c(C2(C(=O)NS(=O)(=O)c3cccc4ncccc34)CC2)c1 [Example I-110, 1-[2-methoxy-5-(1-methoxy-2-methylpropan-2-yl)phenyl]-N-(quinoline-5-sulfonyl)cyclopropane-1-carboxamide] | < 3 | +++ (≥350) | < 3 | > 150 |  |  |  | 
7 | COc1ccc(C2CCC2)cc1C1(C(=O)NS(=O)(=O)c2cccc3ncccc23)CC1 [Example I-17, 1-(5-cyclobutyl-2-methoxyphenyl)-N-(quinoline-5-sulfonyl)cyclopropane-1-carboxamide] | < 3 | +++ (≥350) | < 3 | > 150 |  |  |  | 
8 | Cc1ccc(C)c(C2(C(=O)NS(=O)(=O)c3cccc4nc(N)ccc34)CC2)c1 [Example I-81, N-(2-aminoquinoline-5-sulfonyl)-1-(2,5-dimethylphenyl)cyclopropane-1-carboxamide] | < 3 | +++ (≥350) | < 3 | > 150 |  |  |  | 
9 | COc1cnc(OCC(C)C)c(C2(C(=O)NS(=O)(=O)c3cccc4[nH]ccc34)CC2)c1 [Example GI-78, N-(1H-indole-4-sulfonyl)-1-[5-methoxy-2-(2-methylpropoxy)pyridin-3-yl]cyclopropane-1-carboxamide] |  |  |  |  | +++ (≥350) | < 3 | > 150 | < 3
10 | O=C(NS(=O)(=O)c1cccc2ncccc12)C1(c2ccc(C(F)(F)F)nc2C2CC2)CC1 [Example GI-5, 1-[2-cyclopropyl-6-(trifluoromethyl)pyridin-3-yl]-N-(quinoline-5-sulfonyl)cyclopropane-1-carboxamide] | 3 to 10 | +++ (≥350) | < 3 | > 150 |  |  |  | 
11 | CCc1cnc(N2CCC(COC)CC2)c(C2(C(=O)NS(=O)(=O)c3cccc4[nH]ccc34)CC2)c1 [Example GI-120, 1-{5-ethyl-2-[4-(methoxymethyl)piperidin-1-yl]pyridin-3-yl}-N-(1H-indole-4-sulfonyl)cyclopropane-1-carboxamide] |  |  |  |  | +++ (≥350) | < 3 | > 150 | 3 to 10
12 | CC(C)Oc1ncc(C2CC2)cc1C1(C(=O)NS(=O)(=O)c2cccc3[nH]ccc23)CC1 [Example GI-61, 1-{5-cyclopropyl-2-[(propan-2-yl)oxy]pyridin-3-yl}-N-(1H-indole-4-sulfonyl)cyclopropane-1-carboxamide] |  |  |  |  | +++ (≥350) | < 3 | > 150 | < 3
13 | COCC1(c2ccc(OC)c(C3(C(=O)NS(=O)(=O)c4cccc5ncccc45)CC3)c2)CC1 [Example I-73, 1-{2-methoxy-5-[1-(methoxymethyl)cyclopropyl]phenyl}-N-(quinoline-5-sulfonyl)cyclopropane-1-carboxamide] | < 3 | +++ (≥350) | < 3 | > 150 |  |  |  | 
14 | CCOc1ncc(CC)cc1C1(C(=O)NS(=O)(=O)c2cccc3nc(C)ccc23)CC1 [Example GI-117, 1-(2-ethoxy-5-ethylpyridin-3-yl)-N-(2-methylquinoline-5-sulfonyl)cyclopropane-1-carboxamide] |  |  |  |  | +++ (≥350) | < 3 | > 150 | < 3
15 | COc1ccc(C2COC2)cc1C1(C(=O)NS(=O)(=O)c2cccc3ncccc23)CC1 [Example I-90, 1-[2-methoxy-5-(oxetan-3-yl)phenyl]-N-(quinoline-5-sulfonyl)cyclopropane-1-carboxamide] | 3 to 10 | +++ (≥350) | 3 to 10 | 50 to 150 |  |  |  | 
16 | CCOc1ncc(CC)cc1C1(C(=O)NS(=O)(=O)c2cccc3ncccc23)CC1 [Example GI-116, 1-(2-ethoxy-5-ethylpyridin-3-yl)-N-(quinoline-5-sulfonyl)cyclopropane-1-carboxamide] |  |  |  |  | +++ (≥350) | < 3 | > 150 | 3 to 10
17 | COc1cc(C2(C(=O)NS(=O)(=O)c3cccc4[nH]ccc34)CC2)c(OCC(C)C)cn1 [Example GI-21, N-(1H-indole-4-sulfonyl)-1-[2-methoxy-5-(2-methylpropoxy)pyridin-4-yl]cyclopropane-1-carboxamide] | < 3 | +++ (≥350) | < 3 | > 150 |  |  |  | 

Continued, values first:

Row | EC50 [1] [µM] | Maximum % activity (with co-corrector) (with co-corrector) | EC50 [2] [µM] | Emax (without co-corrector) [%] | Maximum % activity (with co-corrector) [3] | EC50 [4] [µM] | Emax [5] [%] | EC50 [6] [µM] | SMILES
18 | < 3 | +++ (≥350) | < 3 | > 150 |  |  |  |  | CCOc1ccc(C)cc1C1(C(=O)NS(=O)(=O)c2cccc3[nH]ccc23)CC1 [II-85]
19 | > 10 | ++ (≥150 and <350) | 3 to 10 | < 50 |  |  |  |  | O=C(NS(=O)(=O)c1ccccc1)C1(c2ccc(Cl)cc2)CCC1 [Example III-7, N-(benzenesulfonyl)-1-(4-chlorophenyl)cyclobutane-1-carboxamide]
20 | 3 to 10 | +++ (≥350) | 3 to 10 | 50 to 150 |  |  |  |  | COc1ncc(C(F)(F)F)cc1C1(C(=O)NS(=O)(=O)c2cccc3ncc(C)n23)CC1 [II-19]
21 | > 10 | + (<150) | > 10 | < 50 |  |  |  |  | CC(C)(C)OC(=O)N1CCC(S(=O)(=O)NC(=O)C2(c3ccc(Cl)cc3Cl)CC2)CC1 [Example III-80, tert-butyl 4-{[1-(2,4-dichlorophenyl)cyclopropane-1-carbonyl]sulfamoyl}piperidine-1-carboxylate]
22 | 3 to 10 | +++ (≥350) | 3 to 10 | > 150 |  |  |  |  | COc1ccc(C2CCC2)cc1C1(C(=O)NS(=O)(=O)c2cccc3c2CCN3C)CC1 [II-40]
23 |  |  |  |  | +++ (≥350) | 3 to 10 | > 150 | 3 to 10 | CCc1cnc(N2CCCC2)c(C2(C(=O)NS(=O)(=O)c3cccc4ncccc34)CC2)c1 [GII-30, 1-[5-ethyl-2-(pyrrolidin-1-yl)pyridin-3-yl]-N-(quinoline-5-sulfonyl)cyclopropane-1-carboxamide]
24 | < 3 | +++ (≥350) | < 3 | > 150 |  |  |  |  | COc1ncc(C2CCC2)c(C)c1C1(C(=O)NS(=O)(=O)c2cccc3ccc(C)nc23)CC1 [II-44]
25 | < 3 | +++ (≥350) | < 3 | > 150 |  |  |  |  | CCOCC(C)(C)c1ccc(OC)c(C2(C(=O)NS(=O)(=O)c3cccc4nc(C)ccc34)CC2)c1 [II-111]
26 | < 3 | +++ (≥350) | < 3 | > 150 |  |  |  |  | CCOc1ccc(C)cc1C1(C(=O)NS(=O)(=O)c2cccc3nc(NC)ccc23)CC1 [II-84]
27 | 3 to 10 | +++ (≥350) | 3 to 10 | 50 to 150 |  |  |  |  | COc1ccc(C#N)cc1C1(C(=O)NS(=O)(=O)c2cccc3ncccc23)CC1 [Example III-99, 1-(5-cyano-2-methoxyphenyl)-N-(quinoline-5-sulfonyl)cyclopropane-1-carboxamide]
28 |  |  |  |  | ++ (≥150 and <350) | > 10 | < 50 | > 10 | Cc1cnc(N2CCN(C)CC2)c(C2(C(=O)NS(=O)(=O)c3cccc4ncccc34)CC2)c1 [GIII-26]
